One assay deals with bipinnate beggarticks. Description: Test E pre-/postemergence herbicide test. The assay is classed as in vivo, Bidens bipinnata. Particulars: Preemergence. An excerpt:
(§1) Seeds of plant species selected from bipinnate beggarticks (Bidens bipinnata L.), hairy beggarticks (Bidens radiata Thuill.), bermudagrass (Cynodon dactylon (L.) Pers.), Surinam grass (Urochloa decumbens (Staph) R. D. Webster, previously named Brachiaria decumbens Stapf), large crabgrass (Digitaria sanguinalis (L.) Scop.), green foxtail (Setaria viridis (L.) P. Beauv.), goosegrass (Eleusine indica (L.) Gaertn.), johnsongrass (Sorghum halepense (L.) Pers.), kochia (Kochia scoparia (L.) Schrad.), pitted morningglory (Ipomoea lacunosa L.), purple nutsedge (Cyperus rotundus L.), common ragweed (Ambrosia elatior L.), mustard (Brassica nigra (L.) W. D. J. Koch), guineagrass (Panicum maximum Jacq.), dallisgrass (Paspalum dilatatum Poir.), barnyardgrass (Echinochloa crus-galli (L). P. Beauv.), southern sandbur (Cenchrus echinatus L.), common sowthistle (Sonchus oleraceous L.), prickly sida (Sida spinosa L.), Italian ryegrass (Lolium multiflorum Lam.), common purslane (Portulaca oleracea L.), broadleaf signalgrass (Brachiaria platyphylla (Griseb.) Nash), common groundsel (Senecio vulgaris L.), common chickweed (Stellaria media (L.) Vill/Cyr.), tropical spiderwort (Commelina benghalensis L.), annual bluegrass (Poa annua L.), downy bromegrass (Bromus tectorum L.), itchgrass (Rottboellia cochinchinensis (L.) L.f.), quackgrass (Elytrigia repens (L.) Nevski), Canada horseweed (Erigeron Canadensis L.), field bindweed (Convolvulus arvensis L.), spotted spurge (Euphorbia maculata L.), common mallow (Malva sylvestris (=s silvestris) L.), and Russian thistle (Salsola kali L. ssp. Ruthenica (Iljin) Soo) were planted and treated preemergence with test chemicals formulated in a non-phytotoxic solvent mixture which included a surfactant.
(§2) At the same time, plants selected from these weed species were treated with postemergence applications of some of the test chemicals formulated in the same manner. Plants ranged in height from 2 to 18 cm (1- to 4-leaf stage) for postemergence treatments. Treated plants and controls were maintained in a greenhouse for 12 to 14 days, after which time all species were compared to controls and visually evaluated. Plant response ratings, summarized in Table E, are based on a scale of 0 to 100 where 0 is no effect and 100 is complete control. A dash (-) response means no test result.

For the next assay, the system named is kochia. The assay can be described thus: Test E pre-/postemergence herbicide test. It counts as in vivo, Kochia scoparia.
From the text: as §1, §2

The subject of assay [1] is smallflower umbrella sedge. Description: Test D flooded paddy test. Particulars: 21 days, scale 0 to 100. It counts as in vivo, Cyperus difformis. An excerpt: (§3) Three plastic pots (ca. 16-cm diameter) per rate were partially filled with sterilized Tama silt loam soil comprising a 35:50:15 ratio of sand, silt and clay and 2.6% organic matter. Separate plantings for each of the three pots were as follows. Seeds from the U.S. of ducksalad (Heteranthera limosa (Sw.) Willd.), smallflower umbrella sedge (Cyperus difformis L.) and purple redstem (Ammannia coccinea Rottb.), were planted into one 16-cm pot for each rate. Seeds from the U.S. of rice flatsedge (Cyperus iria L.), bearded sprangletop (Leptochloa fascicularis (Lam.) Gray), one stand of 9 or 10 water seeded rice seedlings (Oryza sativa L. cv. ‘Japonica—M202’), and one stand of 6 transplanted rice seedlings (Oryza sativa L. cv. ‘Japonica—M202’) were planted into one 16-cm pot for each rate. Seeds from the U.S. of barnyardgrass (Echinochloa crus-galli (L.) Beauv.), late watergrass (Echinochloa oryzicola Vasinger), early watergrass (Echinochloa oryzoides (Ard.) Fritsch) and junglerice (Echinochloa colona (L.) Link) were planted into one 16-cm pot for each rate. Plantings were sequential so that crop and weed species were at the 2.0 to 2.5-leaf stage at time of treatment.
(§4) Potted plants were grown in a greenhouse with day/night temperature settings of 29.5/26.7° C., and supplemental balanced lighting was provided to maintain a 16-hour photoperiod. Test pots were maintained in the greenhouse until test completion.
(§5) At time of treatment, test pots were flooded to 3 cm above the soil surface, treated by application of test compounds directly to the paddy water, and then maintained at that water depth for the duration of the test. Effects of treatments on rice and weeds were visually evaluated by comparison to untreated controls after 21 days. Plant response ratings are reported on a 0 to 100 scale; where 0 is no effect and 100 is complete control. A dash (-) response means no test result.

For the next assay, the system named is purple redstem. Description: Test D flooded paddy test. The assay is classed as in vivo, Ammannia coccinea. The conditions noted are these: 21 days, scale 0 to 100.
From the text: as §3, §4, §5

The test system of another assay is rice flatsedge. The assay can be described thus: Test D flooded paddy test. It counts as in vivo, Cyperus iria. The conditions noted are these: 21 days, scale 0 to 100.
From the text: as §3, §4, §5

Another assay relates to bearded sprangletop. Description: Test D flooded paddy test. The assay is classed as in vivo, Leptochloa fascicularis. The conditions noted are these: 21 days, scale 0 to 100.
From the text: as §3, §4, §5

The subject of assay [2] is transplanted rice seedlings. The assay can be described thus: Test D flooded paddy test. The assay is classed as in vivo, Oryza sativa. The conditions noted are these: 21 days, scale 0 to 100.
From the text: as §3, §4, §5

The test system of assay [3] is water seeded rice seedlings. Description: Test D flooded paddy test. The conditions noted are these: 21 days, scale 0 to 100. It counts as in vivo, Oryza sativa.
From the text: as §3, §4, §5

For another assay, the system named is early watergrass. The assay can be described thus: Test D flooded paddy test. It counts as in vivo, Echinochloa oryzoides. The conditions noted are these: 21 days, scale 0 to 100.
From the text: as §3, §4, §5

A further assay has as its system junglerice. Description: Test D flooded paddy test. Particulars: 21 days, scale 0 to 100. It counts as in vivo, Echinochloa colona.
From the text: as §3, §4, §5

With `Cc1nn(C(C)(C)C)nc1C(=O)Nc1cccc(C(=O)N(C)C)c1` [Compound 391], the “Plant response rating, Beggarticks, Bip.” value in the assay on bipinnate beggarticks (62 g ai/ha, scale 0 to 100) is recorded as 40; in the assay on bipinnate beggarticks (125 g ai/ha, scale 0 to 100), 80; in the assay with bipinnate beggarticks (250 g ai/ha, scale 0 (no effect) to 100 (complete control)) it was 100; in the assay with bipinnate beggarticks (500 g ai/ha, scale 0 (no effect) to 100 (complete control)) it was 100.

As to `CCn1nc(C(C)(C)C)cc1C(=O)Nc1cc(C(=O)N(C)C)ccc1F` [Compound 6, N-[5-[(dimethylamino)carbonyl]-2-fluorophenyl]-3-(1,1-dimethylethyl)-1-ethyl-1H-pyrazole-5-carboxamide], the “Plant response rating, Kochia” value with kochia (Postemergence, 500 g ai/ha, scale 0 to 100) amounted to 100; in the assay with kochia (Postemergence, 250 g ai/ha, scale 0 to 100), 100; in the assay with kochia (Preemergence, 62 g ai/ha, scale 0 to 100) it was 100; in the assay on kochia (Preemergence, 125 g ai/ha, scale 0 (no effect) to 100 (complete control)), 100; in the assay on kochia (Preemergence, 250 g ai/ha, scale 0 (no effect) to 100 (complete control)), 100; in the assay on kochia (Preemergence, 500 g ai/ha, scale 0 (no effect) to 100 (complete control)), 100. For the same compound, the “Plant response rating, Kochia” value is on record as 100 with kochia (postemergence, 125 g ai/ha, scale 0 to 100) and 100 in the assay with kochia (postemergence, 62 g ai/ha, scale 0 to 100).

On to `CCc1nc(C(C)(C)C)sc1C(=O)Nc1cccc(C(=O)NCC2CC2)n1` [Compound 215], for which the “Plant response rating, Sedge, Umbrella” value in assay [1] (125 g ai/ha) is recorded as 20; in assay [1] (250 g ai/ha), 95; in assay [1] (500 g ai/ha), 95; in [1] (750 g ai/ha) it was 95; in [1] (1000 g ai/ha), 100. The “Plant response rating, Redstem” value was found to be 0 in the assay with purple redstem (125 g ai/ha); 100 with purple redstem (250 g ai/ha); 100 with purple redstem (500 g ai/ha); 100 in the assay on purple redstem (750 g ai/ha); 100 in the assay on purple redstem (1000 g ai/ha). Moreover, the “Plant response rating, Flatsedge, Rice” value amounted to 0 in the assay with rice flatsedge (125 g ai/ha); 60 in the assay with rice flatsedge (250 g ai/ha); 60 in the assay with rice flatsedge (500 g ai/ha); 80 in the assay with rice flatsedge (750 g ai/ha); 90 with rice flatsedge (1000 g ai/ha). For the same compound, the “Plant response rating, Sprangletop, Bearded” value in the assay on bearded sprangletop (125 g ai/ha), in the assay with bearded sprangletop (250 g ai/ha), with bearded sprangletop (500 g ai/ha), with bearded sprangletop (750 g ai/ha) and with bearded sprangletop (1000 g ai/ha) was 20 in each case. Further, the “Plant response rating, Rice, Transplanted” value is listed as 0 in assay [2] (125 g ai/ha); 10 in [2] (250 g ai/ha); 20 in assay [2] (500 g ai/ha); 20 in assay [2] (750 g ai/ha); 35 in assay [2] (1000 g ai/ha). Moreover, the “Plant response rating, Rice, Water Seeded” value was 20 in assay [3] (125 g ai/ha); 35 in [3] (250 g ai/ha); 45 in [3] (500 g ai/ha); 45 in assay [3] (750 g ai/ha); 45 in assay [3] (1000 g ai/ha). Moreover, the “Plant response rating, Watergrass, Early” value was determined as 0 in the assay with early watergrass (125 g ai/ha); 0 in the assay on early watergrass (250 g ai/ha); 20 with early watergrass (500 g ai/ha); 25 in the assay on early watergrass (750 g ai/ha); 40 with early watergrass (1000 g ai/ha). For the same compound, the “Plant response rating, Junglerice” value was 0 with junglerice (125 g ai/ha); 0 with junglerice (250 g ai/ha); 20 in the assay with junglerice (500 g ai/ha); 25 with junglerice (750 g ai/ha); 25 with junglerice (1000 g ai/ha).

The values are drawn from patent US20060069132A1, “Azolecarboxamide herbicides” (priority 2004, published 2006).
